Assay [1] has as its target cloned human P2Y1 receptors (Homo sapiens (Human), UniProt P47900). As to the kind of experiment: Binding Assay B - Scintillation Proximity Assay (SPA) for P2Y1 binding, [33P] 2MeS-ADP. The settings on record: read-out: P2Y1 Ki (nM) using binding assay B. The procedure: Binding Assay B—Scintillation Proximity Assay (SPA) for P2Y1 Binding
A SPA membrane binding assay was used to identify inhibitors of [^33P] […] Reactions were allowed to proceed to completion at room temperature for 1 hour followed by centrifugation of the plate for 5 min. About 40 μL of the aqueous solution was aspirated. Plates were sealed and the [^33P]
A general note: SPA uses beads or plates that emit light when radiolabelled molecules are held near them.

For assay [2], the system named is human platelet rich plasma (PRP). In words: ADP induced platelet aggregation assay. The settings on record: Homo sapiens, Platelet, 5 min, read-out: PA IC50 (μM) @ 10 μM ADP, human PRP, 10 μM ADP, AUC at 5 minute.
The mark [3] stands for this setting: SPA, 0.3 nM [33P] 2MeS-ADP, Cheng-Prusoff.

The values that follow come from US9540323B2 (BRISTOL-MYERS SQUIBB COMPANY, priority 2012, dated 2017).

Read-outs that look alike come from different tables or passages of the source.

Chain of cloned human P2Y1 receptors (P47900 whole entry): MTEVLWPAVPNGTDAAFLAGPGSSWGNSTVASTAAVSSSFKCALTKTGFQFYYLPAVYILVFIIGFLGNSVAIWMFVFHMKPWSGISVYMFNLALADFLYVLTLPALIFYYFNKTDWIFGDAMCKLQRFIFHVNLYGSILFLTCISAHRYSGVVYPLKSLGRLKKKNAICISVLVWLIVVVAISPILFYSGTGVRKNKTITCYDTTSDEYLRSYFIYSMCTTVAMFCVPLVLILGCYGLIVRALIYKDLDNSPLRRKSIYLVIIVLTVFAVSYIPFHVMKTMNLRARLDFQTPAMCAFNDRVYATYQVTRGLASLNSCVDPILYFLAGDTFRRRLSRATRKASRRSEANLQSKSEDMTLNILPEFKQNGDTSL

The term Ki denotes the equilibrium dissociation constant of an inhibitor or competing ligand from its target. A word on the IC50: it is the point on the concentration scale where inhibition reaches its midpoint. For `CC1(C)CN(c2ccccc2NC(=O)Nc2nc3ccc(Cl)cc3s2)c2c(O)c(F)cc(Br)c21` [Example 66, 1-(2-(4-Bromo-6-fluoro-7-hydroxy-3,3-dimethylindolin-1-yl)phenyl)-3-(6-chlorobenzo[d]thiazol-2-yl)urea], the inhibition constant Ki in assay [1] (setting [3]) came out at 21.3 nM. Moreover, in assay [2], the IC50 is 0.75 µM.
In the same order, the values of `CC1(C)CN(c2ccccc2NC(=O)Nc2ccc(OC(F)(F)F)cc2)c2c(O)ccc(-c3nc4cc(C(F)(F)F)ccc4s3)c21` [Example 87] are 42.9 nM and 0.27 µM.
In the same order, the values of `CC1(C)CN(c2ccccc2NC(=O)Nc2nc3ccc(F)nc3s2)c2c(O)cc(F)c(-c3nc4ccc(F)cc4s3)c21` [Example 178, 1-(2-(5-Fluoro-4-(6-fluorobenzo[d]thiazol-2-yl)-7-hydroxy-3,3-dimethylindolin-1-yl)phenyl)-3-(5-fluorothiazolo[5,4-b]pyridin-2-yl)urea] are 17.9 nM and 0.74 µM.
Turning to `CC1(C)CN(c2ccccc2NC(=O)Nc2ccc(OC(F)(F)F)cc2)c2c(O)ccc(-c3cccc(F)c3)c21` [Example 206, 1-(2-(4-(3-Fluorophenyl)-7-hydroxy-3,3-dimethylindolin-1-yl)phenyl)-3-(4-(trifluoromethoxy)phenyl)urea], the Ki in assay [1] (setting [3]) was determined as 8.5 nM. In addition, in assay [2], the IC50 was 0.24 µM.
In the same order, the values of `CC1(C)CN(c2ccccc2NC(=O)Nc2nc3ccc(Cl)nc3s2)c2c(O)cc(F)c(-c3ccc(Cl)cc3)c21` [Example 226, 1-(2-(4-(4-Chlorophenyl)-5-fluoro-7-hydroxy-3,3-dimethylindolin-1-yl)phenyl)-3-(5-chlorothiazolo[5,4-b]pyridin-2-yl)urea] are 26.6 nM and 0.46 µM.
In the same order, the values of `CC1(C)CN(c2ccccc2NC(=O)Nc2csc(Cl)n2)c2c(O)cc(F)c(-c3ccc(F)cc3)c21` [Example 212, 1-(2-Chlorothiazol-4-yl)-3-(2-(5-fluoro-4-(4-fluorophenyl)-7-hydroxy-3,3-dimethylindolin-1-yl)phenyl)urea] are 4.9 nM and 0.16 µM.
In the same order, the values of `CC1(C)CN(c2ccccc2NC(=O)Nc2ccc(OC(F)(F)F)cc2)c2c(O)ccc(-c3nc4cc(Cl)ccc4o3)c21` [Example 84, 1-(2-(4-(5-Chlorobenzo[d]oxazol-2-yl)-7-hydroxy-3,3-dimethylindolin-1-yl)phenyl)-3-(4-(trifluoromethoxy)phenyl)urea] are 16.7 nM and 0.58 µM.
Regarding `CC1(C)CN(c2ccccc2NC(=O)Nc2ccc(OC(F)(F)F)cc2)c2c(O)ccc(-c3ccccc3)c21` [Example 195, 1-(2-(7-Hydroxy-3,3-dimethyl-4-phenylindolin-1-yl)phenyl)-3-(4-(trifluoromethoxy)phenyl)urea], in assay [1] (setting [3]), the Ki was 9 nM. For the same compound, the 50% inhibitory concentration (IC50) in assay [2] was determined as 0.18 µM.
In the same order, the values of `CC1(C)CN(c2ccccc2NC(=O)Nc2ccc(OC(F)(F)F)cc2)c2c(O)cc(F)c(-c3ccc(Cl)cc3F)c21` [Example 236, 1-(2-(4-(4-Chloro-2-fluorophenyl)-5-fluoro-7-hydroxy-3,3-dimethylindolin-1-yl)phenyl)-3-(4-(trifluoromethoxy)phenyl)urea] are 17 nM and 0.23 µM.
In the same order, the values of `CC1(C)CN(c2ccccc2NC(=O)Nc2ccc(OC(F)(F)F)cc2)c2c(O)ccc(-c3ncc(F)cn3)c21` [Example 133, 1-(2-(4-(5-Fluoropyrimidin-2-yl)-7-hydroxy-3,3-dimethylindolin-1-yl)phenyl)-3-(4-(trifluoromethoxy)phenyl)urea] are 10.2 nM and 0.69 µM.
In the same order, the values of `CC1(C)CN(c2ccccc2NC(=O)Nc2ccc(OC(F)(F)F)cc2)c2c(O)cc(F)c(-c3ccnc(F)c3)c21` [Example 190, 1-(2-(5-Fluoro-4-(2-fluoropyridin-4-yl)-7-hydroxy-3,3-dimethylindolin-1-yl)phenyl)-3-(4-(trifluoromethoxy)phenyl)urea] are 10.6 nM and 0.48 µM.
For the compound `CC1(C)CN(c2ccccc2NC(=O)Nc2ccc(OC(F)(F)F)cc2)c2c(O)cc(F)c(-c3ncc(F)cn3)c21` [Example 164, 1-(2-(5-Fluoro-4-(5-fluoropyrimidin-2-yl)-7-hydroxy-3,3-dimethylindolin-1-yl)phenyl)-3-(4-(trifluoromethoxy)phenyl)urea], in assay [1] (setting [3]), the Ki is 10.8 nM. Also, the half-inhibitory concentration (IC50) in assay [2] turned out to be 0.95 µM.
In the same order, the values of `CC1(C)CN(c2ccccc2NC(=O)Nc2ccc(OC(F)(F)F)cc2)c2c(O)ccc(C(F)(F)F)c21` [Example 12, 1-(2-(7-Hydroxy-3,3-dimethyl-4-(trifluoromethyl)indolin-1-yl)phenyl)-3-(4-(trifluoromethoxy)phenyl)urea] are 5 nM and 0.2 µM.
In the same order, the values of `CC(C)c1noc(-c2c(F)cc(O)c3c2C(C)(C)CN3c2ccccc2NC(=O)Nc2ccc(OC(F)(F)F)cc2)n1` [Example 256, 1-(2-(5-Fluoro-7-hydroxy-4-(3-isopropyl-1,2,4-oxadiazol-5-yl)-3,3-dimethylindolin-1-yl)phenyl)-3-(4-(trifluoromethoxy)phenyl)urea] are 6.6 nM and 0.76 µM.
In the same order, the values of `Cc1cc(-c2ccc(O)c3c2C(C)(C)CN3c2ccccc2NC(=O)Nc2ccc(OC(F)(F)F)cc2)cnc1F` [Example 119, 1-(2-(4-(6-Fluoro-5-methylpyridin-3-yl)-7-hydroxy-3,3-dimethylindolin-1-yl)phenyl)-3-(4-(trifluoromethoxy)phenyl) urea] are 3.3 nM and 0.47 µM.
On to `CC1(C)CN(c2ccccc2NC(=O)Nc2ccc(F)cc2F)c2c(O)ccc(C(F)(F)F)c21` [Example 14, 1-(2,4-Difluorophenyl)-3-(2-(7-hydroxy-3,3-dimethyl-4-(trifluoromethyl)indolin-1-yl)phenyl)urea], for which, in assay [1] (setting [3]), the Ki is 5.2 nM. In assay [2], the half-inhibitory concentration (IC50) came to 0.48 µM.
In the same order, the values of `CC(C)n1nc(C(F)(F)F)cc1-c1c(F)cc(O)c2c1C(C)(C)CN2c1ccccc1NC(=O)Nc1nc2ccc(Cl)cc2s1` [Example 268, 1-(6-Chlorobenzo[d]thiazol-2-yl)-3-(2-(5-fluoro-7-hydroxy-4-(1-isopropyl-3-(trifluoromethyl)-1H-pyrazol-5-yl)-3,3-dimethylindolin-1-yl)phenyl)urea] are 18.1 nM and 0.45 µM.
For the compound `CC(C)(C)c1nc(-c2c(F)cc(O)c3c2C(C)(C)CN3c2ccccc2NC(=O)Nc2ccc(OC(F)(F)F)cc2)no1` [Example 278, 1-(2-(4-(5-(tert-Butyl)-1,2,4-oxadiazol-3-yl)-5-fluoro-7-hydroxy-3,3-dimethylindolin-1-yl)phenyl)-3-(4-(trifluoromethoxy)phenyl)urea], the Ki in assay [1] was 8.1 nM. The IC50 in assay [2] was 0.21 µM.
Turning to `CCC1(CC)CN(c2ccccc2NC(=O)Nc2ccc(OC(F)(F)F)cc2)c2c1ccc(F)c2O` [Example 35, 1-(2-(3,3-Diethyl-6-fluoro-7-hydroxyindolin-1-yl)phenyl)-3-(4-(trifluoromethoxy)phenyl)urea], the Ki in assay [1] (setting [3]) was 13.8 nM. Also, the IC50 in assay [2] was determined as 0.38 µM.
Consider `CC(C)(C)CN1CCC(c2ccc(NC(=O)Nc3ccccc3N3CC(C)(C)c4c(-c5ccc(Cl)cc5)c(F)cc(O)c43)cc2)CC1` [Example 240, 1-(2-(4-(4-Chlorophenyl)-5-fluoro-7-hydroxy-3,3-dimethylindolin-1-yl)phenyl)-3-(4-(1-neopentylpiperidin-4-yl)phenyl)urea], for which the Ki in assay [1] (setting [3]) worked out at 13.7 nM. For the same compound, the IC50 in assay [2] was determined as 0.31 µM.
In the case of `CCC1(CC)CN(c2ccccc2NC(=O)Nc2ccc(C(C)(C)C)cc2)c2c1ccc(F)c2O` [Example 38, 1-(4-tert-Butylphenyl)-3-(2-(3,3-diethyl-6-fluoro-7-hydroxyindolin-1-yl)phenyl)urea], in assay [1] (setting [3]), the Ki came to 14.8 nM. Besides, in assay [2], the IC50 worked out at 0.43 µM.
In the same order, the values of `CC1(C)CN(c2ccccc2NC(=O)Nc2nc3ccc(F)cc3s2)c2c(O)ccc(-c3nc4ccc(Cl)cc4o3)c21` [Example 134, 1-(2-(4-(6-Chlorobenzo[d]oxazol-2-yl)-7-hydroxy-3,3-dimethylindolin-1-yl)phenyl)-3-(6-fluorobenzo[d]thiazol-2-yl)urea] are 73.8 nM and 0.19 µM.
In the same order, the values of `CC(C)CN1CCC(c2ccc(NC(=O)Nc3ccccc3N3CC(C)(C)c4c(-c5ccc(Cl)cc5)c(F)cc(O)c43)cc2)CC1` [Example 238, 1-(2-(4-(4-Chlorophenyl)-5-fluoro-7-hydroxy-3,3-dimethylindolin-1-yl)phenyl)-3-(4-(1-isobutylpiperidin-4-yl)phenyl)urea] are 16.3 nM and 0.4 µM.
In the same order, the values of `CC1(C)CN(c2ccccc2NC(=O)Nc2ccc(OC(F)(F)F)cc2)c2c(O)cc(F)c(-c3cnc(Cl)cn3)c21` [Example 163, 1-(2-(4-(5-Chloropyrazin-2-yl)-5-fluoro-7-hydroxy-3,3-dimethylindolin-1-yl)phenyl)-3-(4-(trifluoromethoxy)phenyl)urea] are 43.1 nM and 0.26 µM.
As for `CC1(C)CN(c2ccccc2NC(=O)Nc2ccc(OC(F)(F)F)cc2)c2c(O)cc(F)c(-c3ccc(F)nc3)c21` [Example 188, 1-(2-(5-Fluoro-4-(6-fluoropyridin-3-yl)-7-hydroxy-3,3-dimethylindolin-1-yl)phenyl)-3-(4-(trifluoromethoxy)phenyl)urea], the Ki in assay [1] (setting [3]) worked out at 4.7 nM. In assay [2], the IC50 is 0.38 µM.
Regarding `CCC1(CC)CN(c2ccccc2NC(=O)Nc2ccc(OC(F)(F)F)cc2)c2c(O)ccc(C)c21` [Example 71, 1-(2-(3,3-Diethyl-7-hydroxy-4-methylindolin-1-yl)phenyl)-3-(4-(trifluoromethoxy)phenyl)urea], the inhibition constant Ki in assay [1] (setting [3]) turned out to be 6.8 nM. For the same compound, the IC50 in assay [2] was 0.5 µM.
